Assay results reported in patent EP0620231B1, “Human parvovirus B19 epitope-related peptide” (Shin-Etsu Chemical Co., Ltd., priority 1993, dated 1996).

Key:
anti-HPV B19 antibodies [1] = experiment: Detection Example 3: determination of IgG with peptide immobilized through biotin-avidin affinity; type: binding, human; settings: biotinylated peptide on avidin plate, Fig. 6
Protocol: This Example is given for illustrating a method in which the immobilized solid support is prepared by immobilizing peptide onto the solid support through the use of the biotin-avidin affinity to thus determine the IgG antibody. First of all, a 250 µg/mℓ solution of biotin-N-hydroxysuccinimide ester (NHS-Biotin) was dispensed to wells (100µℓ each) of a microtiter plate of polystyrene carrying, on the surface, amino groups and the reaction was continued at 37 °C for 2 hours. Then the microtiter plate was washed 6 times with a phosphate buffer, a 50µg/mℓ solution of avidin was dispensed to the wells (100µℓ each) and they were reacted at 37 °C for one hour.
The biotinylated peptide used herein was obtained by coupling NHS-Biotin to the N-terminal of the protected peptide prepared in the same manner used in the foregoing Peptide Preparation Example followed by removal of the protective groups and purification carried out according to the same manner used in the foregoing Peptide Preparation Example. The resulting biotinylated peptide was washed 6 times with a phosphate buffer and subjected to blocking and assay according to the same method used in Detection Example 2.
The peptide of Formula (1) was used in this determination. In addition, the peptides of Formulae (2) and (3) were also used as comparative peptides. The results thus obtained are plotted on Fig. 6. […]

anti-HPV B19 antibodies [2] = experiment: Secondary screening: reactivity of free synthetic peptides with anti-HPV B19 antibodies; type: binding; settings: for Reactivity with Anti-HPV B19 Antibodies: free peptides, symbols ⓞ, X printed without a legend
Source text: A secondary screening would be carried out to make clear the reactivity of a free peptide with the anti-HPV B19 antibodies. In this respect, the synthesis of such a free peptide should be performed while taking, into consideration, the degree of difficulty in synthesizing and purifying the corresponding amino acid sequence. Moreover, the number of amino acid residues in the free peptide should be determined after inquiring into possible structures of each amino acid sequence, i.e., the result of the secondary structure-determination using the computer program.
The foregoing primary screening was performed by preparing peptides each equally having 15 amino acid residues therein, but the secondary screening was carried out while preparing various peptides having variously changed amino acid residue numbers due to the reasons discussed above and the inventors have narrowed down to 6 amino acid sequences listed in the following Table 2.
Finally, 6 kinds of free peptides corresponding to the foregoing 6 amino acid sequences were synthesized and were inspected for the reactivity with the anti-HPV B19 antibodies. […]

[3] = system: IgM among the anti-HPV antibodies; experiment: Detection Example 2: ELISA detection of immunoglobulin M (IgM) in patient serum on immobilized peptide; type: binding; settings: ELISA with HRP-labeled human IgM antibody; Fig. 5
Source text: In this example, the serum obtained from a patient infected with HPV B19 was inspected for the presence of an IgM antibody by the ELISA method. The same procedures used in Detection Example 1 were repeated to give an immobilized solid support and to carry out the same assay except that HRP-labeled human IgM antibody was substituted for the HRP-labeled human IgG antibody used in Detection Example 1.
The peptide of Formula (1) was used in this determination. In addition, the peptides of Formulae (2) and (3) were also used as comparative peptides. The results thus obtained are plotted on Fig. 5.

[4] = system: anti-HPV B19 antibody (IgG); experiment: Detection Example 1: ELISA detection of immunoglobulin G (IgG) in patient serum on immobilized peptide; type: binding, human; settings: Fig. 4
Protocol: In this example, the serum obtained from a patient infected with HPV B19 was inspected for the presence of an IgG antibody by the ELISA method. A microtiter plate made of polystyrene was used as a solid support. A peptide solution whose peptide concentration was adjusted to 10µg/mℓ with a phosphate buffer was dispensed to the wells (100µℓ each) of the plate and then the peptide was allowed to be immobilized at room temperature overnight to give an immobilized solid support. The immobilized solid support was then treated with blocking agent for inhibiting any non-specific adsorption reaction of unlinked sites present on the solid support with the IgG antibody. […]
The microtiter plate was washed 6 times with a phosphate buffer, then horseradish peroxidase (HRP)-labeled anti-human IgG antibody which was diluted 1000 times with the same buffer was dispensed to the wells (100µℓ each) and they were reacted at 37°C for one hour. […] The colored product was inspected for the presence of HRP through determination of absorbance at a wavelength of 492 nm using a microtiter plate reader.
The peptide of Formula (1) was used in this determination. […] In Fig. 4, the time after onset of illness is plotted as abscissa and the absorbance as ordinate.

Row | SMILES | reactivity at the initial stage of the infection (the acute stage) (anti-HPV B19 antibodies [1]) | reactivity with the anti-HPV B19 antibodies (anti-HPV B19 antibodies [1]) | reactivity with the anti-HPV B19 antibodies compared with the peptide reported by Sato et al. (anti-HPV B19 antibodies [2]; comparison with peptide VP2 328-344) | Reactivity with Anti-HPV B19 Antibodies (anti-HPV B19 antibodies [2]) | reactivity with IgM among the anti-HPV antibodies [3] | reactivity with the anti-HPV B19 antibody (IgG) ([4]; ELISA, absorbance at 492 nm, serum diluted 200 times, peptide 10 µg/ml) | reactivity at the initial stage of the infection (the acute stage) ([4]; IgG ELISA, time after onset of illness)
1 | CC[C@H](C)[C@H](NC(=O)CNC(=O)[C@@H](NC(=O)[C@@H](NC(=O)[C@H](Cc1ccc(O)cc1)NC(=O)[C@H](CCCCN)NC(=O)[C@H](CC(=O)O)NC(=O)[C@@H](NC(=O)[C@H](CC(=O)O)NC(=O)[C@H](Cc1c[nH]c2ccccc12)NC(=O)[C@H](Cc1c[nH]cn1)NC(=O)[C@H](Cc1c[nH]cn1)NC(=O)[C@H](Cc1ccc(O)cc1)NC(=O)[C@@H]1CCCN1C(=O)[C@@H](N)CCC(N)=O)[C@@H](C)O)C(C)C)[C@@H](C)O)C(=O)N[C@@H](CC(N)=O)C(=O)N[C@@H](C)C(=O)N[C@H](C(=O)N[C@@H](CO)C(=O)N[C@@H](Cc1c[nH]cn1)C(=O)NCC(=O)N[C@@H](CCC(N)=O)C(=O)N[C@H](C(=O)N[C@H](C(=O)N[C@@H](Cc1ccc(O)cc1)C(=O)O)[C@@H](C)O)[C@@H](C)O)[C@@H](C)CC [Formula (1)] | strong reactivity | high reactivity | extremely high | ⓞ | high reactivity | high reactivity | strong reactivity
2 | CC(C)C[C@H](N)C(=O)N[C@@H](CCCNC(=N)N)C(=O)N1CCC[C@H]1C(=O)NCC(=O)N1CCC[C@H]1C(=O)N[C@H](C(=O)N[C@@H](CO)C(=O)N[C@@H](CCC(N)=O)C(=O)N1CCC[C@H]1C(=O)N[C@@H](Cc1ccc(O)cc1)C(=O)N[C@@H](Cc1c[nH]cn1)C(=O)N[C@@H](Cc1c[nH]cn1)C(=O)N[C@@H](Cc1c[nH]c2ccccc12)C(=O)N[C@@H](CC(=O)O)C(=O)N[C@H](C(=O)N[C@@H](CC(=O)O)C(=O)N[C@@H](CCCCN)C(=O)O)[C@@H](C)O)C(C)C [Formula (3), H-Leu-Arg-Pro-Gly-Pro-Val-Ser-Gln-Pro-Tyr-His-His-Trp-Asp-Thr-Asp-Lys-OH, reference compound] |  |  |  | ○ |  |  | 
